The numbers were not newly measured in patent US20040192715A1, “Methods of administering opioid antagonists and compositions thereof” (priority 2003, published 2004), which cites them from elsewhere.

The conditions of series [1]: oral administration.
The subject of the next series is mice. The settings on record: parenteral administration to mice.

On to `O=C1CC[C@@]2(O)[C@H]3Cc4ccc(O)c5c4[C@@]2(CCN3CC2CC2)C1O5` (stereo partly drawn) [naltrexone, 17-(cyclopropylmethyl) -4,5-epoxy-3,14-dihydroxymorphinan-6-one], for which the protein binding entry is on record as “approximately 21%”. Also, in series [1], the oral bioavailability is on record as 5-40%. Moreover, in the series with mice, the analgesia result was “produce analgesia”.
